Experimental data as given in ChEMBL document CHEMBL5126658, “Talaropeptins A and B, Tripeptides with an N-trans-Cinnamoyl Moiety from the Marine-Derived Fungus Talaromyces purpureogenus CX11” (2022).
In brackets after ≈: the same amount, converted by molar mass.

How the values were obtained:
Assay type in all cases: functional
Candida albicans = assay: Antifungal activity against Candida albicans SC5314 assessed as fungal growth inhibition incubated for 24 hrs by serial dilution method
Cryptococcus neoformans = assay: Antifungal activity against Cryptococcus neoformans GOYJ11988 assessed as fungal growth inhibition incubated for 24 hrs by serial dilution method
Fusarium oxysporum = assay: Antifungal activity against Fusarium oxysporum ATCC 28856 assessed as fungal growth inhibition incubated for 24 hrs by serial dilution method

MIC (Candida albicans) [µg/mL] | MIC (Cryptococcus neoformans) [µg/mL] | MIC (Fusarium oxysporum) [µg/mL] | SMILES
40 (≈ 104 µM) | 80 (≈ 208 µM) | 25 (≈ 64.9 µM) | C[C@@H]1C(=O)N2CCC[C@H]2[C@]2(O)O[C@@](C)(NC(=O)/C=C/c3ccccc3)C(=O)N12
40 (≈ 99.6 µM) | 80 (≈ 199 µM) | 12.5 (≈ 31.1 µM) | C[C@@H]1C(=O)N2CCC[C@H]2[C@]2(O)O[C@@](CO)(NC(=O)/C=C/c3ccccc3)C(=O)N12
